# In patent US7420090B2 (priority 2002, dated 2008):
# System: Pyrenophora teres
# Format: in vivo
# Details: 200 ppm
structure (smiles),measurement,value
"CCC(Oc1cc(Cl)cc(Cl)c1)C(=O)NC(C)(C)C#CCCCOC (stereo not shown) [4(57), 2-(3,5-dichlorophenoxy)-N-(1-methoxy-6-methylhept-4-yn-6-yl) butyramide]",control of fungal infection (preventive fungicidal activity),more than 60%
